Measurements published in patent publication US20030059511A1, “Sweetener compositions and uses thereof” (AJINOMOTO CO., INC., priority 1999, published 2003).

Columns and labels:
Format in all cases: in vivo, human
[1] = Taste characteristics in an aqueous solution (9 items, similarity index vs aqueous 10% sucrose solution); conditions: PSE 10%, smaller = closer to sucrose, 8 panelists
Description: The following experiments were performed using the water obtained by ion exchanging and further distilling the water.
An aqueous solution of each of derivatives 1 to 9 having a sweetness level equivalent to that of PSE 10% was prepared, and compared with aqueous 10% sucrose solution with respect to the following 9 items, i.e., “onset of the taste”, “round taste”, “clear taste”, “lingering taste”, “peculiar taste”, “heavy taste”, “bitter taste”, “astringent taste” and “irritation”. The results were determined as 5 levels (−2 point: very weak, −1 point: a little weak, 0 point: same, +1 point: a little strong, +2 point: very strong) by 8 panelists, and the average points were calculated. The sample solutions of the derivatives equivalent to PSE 10%, were prepared by using the magnification of sweetness intensity measured in Example 1, and the amounts of each derivatives to be used were as follows.
Next, the total of the absolute value of the deviation from sucrose in each of the evaluation items consisting of the onset of the taste, the round taste, the clear taste, the lingering taste, the peculiar taste, the heavy taste, the bitter taste, the astringent taste and the irritation was divided by 9 (total number of items) to calculate the similarity (which is referred to as “similarity index”). The smaller the similarity index becomes, the better the taste balances, and the closer the taste is to the taste characteristics (quality) of sucrose. The total taste becomes preferable. The similarity indexes of each derivatives are shown as follows.
To the aqueous solution of derivative 1 having a sweetness level equivalent to that of PSE 10%, salt was added as final concentratins of 0.1%, 0.2% and 0.5% to compare with the aqueous solution of 10% sucrose for by 2 points comparison method (n=8) and evaluate the characteristics of the taste.
The sensory evaluation was performed by the same way as Example 6.
The following experiments were conducted using the water obtained by ion exchanging and further distilling tap water.
An aqueous solution of each of derivatives 1 to 9 having a sweetness level equivalent to that of PES 10% was prepared, and compared with aqueous 10% sucrose solution with respect to 9 items, namely, “the onset of the taste”, “round taste”, “clear taste”, “lingering taste”, “peculiar taste”, “heavy taste”, “bitter taste”, “astringent taste” and “irritation”. The results were determined as 5 levels (−2 point: very weak, −1 point: a little weak, 0 point: same, +1 point: a little strong, +2 point: very strong) by 8 panelists, and the average points were calculated.
Next, the total of the absolute value of the deviation from sucrose in each of the evaluation items consisting of onset of the taste, round taste, clear taste, lingering taste, peculiar taste, heavy taste, bitter taste, astringent taste and irritation was divided by 9 (total number of items) to calculate the similarity (which is refer to as “similarity index”). The smaller the similarity index becomes, the better the taste balances, and the closer the taste is to the taste characteristics (quality) of sucrose. The total taste becomes preferable. The similarity indexes of each of the derivatives are shown as follows.

[2] = Magnification of sweetness intensity in the cola drink (sensory evaluation against sucrose cola drinks); conditions: for magnification of sweetness intensity in the cola drink: vs cola drink containing 10% sucrose
Excerpt: And the magnification of sweetness intensity in the cola drink can be also determined by the same method compared to the control solution of cola drink containing 10% sucrose.
The composition of cola drink is as follows.
As for the concentration of the references, the sucrose concentrations of previous (a) to (e) were used. In consequence, the magnification of sweetness intensity in the cola drink of derivative 1 was 22600 times, and that of derivative 2 was 4900 times.
And the magnification of sweetness intensity in the cola drink can be also determined by the same method compared to the reference solution of cola drink containing 10% sucrose.
The components of cola drink is as follows.
As for the concentration of the references, the sucrose concentrations of previous (a) to (e) were used. As the results, the magnification of sweetness intensity in the cola drink of derivative 1 was 22600 times, and that of derivative 2 was 4900 times.
And the magnification of sweetness in the cola drink can be also determined by the same method compared to the control solution of cola drink containing 10% sucrose.
As for the concentration of the references, the sucrose concentrations of previous (a) to (e) were used. As a result, the magnification of sweetness intensity in the cola drink of derivative 1 was 22600 times, and that of derivative 2 was 4900 times.

[3] = Equations for calculating sweetness intensity and values calculated from them; conditions: for concentration of the derivative of PSE 0.5%: from the cola drink equation of Example 17; for X when Y=6.3%: from the equation of the respective derivative
Excerpt: For example, when preparing a solution having a intensity of sweetness equivalent to that of 10% sucrose, wherein 80% of the 10% of intensity of sweetness is from the sweetener component A and the residual 20% is from the sweetener component B, the sweetness ratio is A:B=8:2. When the sweetening magnification relative to sucrose varies depending on the composition and the concentration of the sweetener component is varied even if it is a same sweetener component (in this case, an exponential curve can be prepared and used for calculation), the objective weight of the sweetener component can be calculated. For example, if the equation for converting sweetness intensity (the exponential curve) component A is Y=aX^b, and the equation for converting sweetness intensity (the exponential curve)of component B is Y=cX^d, the weight ratio of the components A and B in the ratio A:B=8:2, can be determined using the following calculation, where Y is a concentration equivalent to that of sucrose (PSE %), and X is the sweetener component concentration (g/100 ml):
(§1) Equations for calculating sweetness intensity in the cola drink (pH 2.8, 20° C.) are as follows, wherein Y denotes the concentration equivalent to that of sucrose (g/100 ml) and X denotes the concentration of the sweetener (g/100 ml), respectively.
With regard to Acesulfame K, the magnification of sweetness intensity was determined according to the following equation for calculating sweetness intensity.
[Y: concentration equivalent to that of sucrose (g/100ml); X: concentration of Acesulfame K (g/100 ml)]
By using the equation for calculating sweetness intensity in the cola drink (refer to Example 4) and the equation for calculating sweetness intensity of Aspartame (refer to the monthly Journal “Food Chemical” August, page 35, 1997), the necessary amounts of those were calculated. In case of Aspartame, the values at 20° C., pH2.8 were used.
The equation for calculating sweetness intensity of derivative 1 in the aqueous solution is as follows.
Where, the calculation of the sweetness was made by using the equation for calculating sweetness intensity of derivative 4 Y=58775X^1.04. When Y=6.3%, X=0.00015 g/100 ml, When Y=5.1%, X=0.00012 g/100 ml.
as §1, with “Examples for equations” for “Equations”, “(pH2.8,” for “(pH 2.8,”, “follows, and another equations can be prepared in the same manner,” for “follows,”

Structure (SMILES)	Similarity index [1]	Amount equivalent to PSE 10% [2] [mg/1000 ml]	magnification of sweetness intensity in the cola drink [2] [times]	concentration of the derivative of PSE 0.5% [3] [g/dL]	X when Y=6.3% [3] [g/100 ml]	also measured
COC(=O)[C@H](Cc1ccccc1)NC(=O)[C@H](CC(=O)O)NCCCc1ccc(OC)c(O)c1 [Derivative 1, N-[N-[3-(3-hydroxy-4-methoxyphenyl)propyl] -L-α-aspartyl]-L-phenylalanine 1-methyl ester]	1.17	4.5	22600	0.0000434	–	magnification of the sweetness intensity at PSE 5% ([3]; calculated, block ice of Example 12): 25600 times; X, concentration of the sweetener when Y=1 ([3]; cola drink, pH 2.8, 20° C.): 0.000074 g/100 ml; X, concentration of the sweetener when Y=2 ([3]; cola drink, pH 2.8, 20° C.): 0.00013 g/100 ml; X, concentration of the sweetener when Y=5 ([3]; cola drink, pH 2.8, 20° C.): 0.00026 g/100 ml; X, concentration of the sweetener when Y=8 ([3]; cola drink, pH 2.8, 20° C.): 0.00037 g/100 ml; X, concentration of the sweetener when Y=9.5 ([3]; cola drink, pH 2.8, 20° C.): 0.000425 g/100 ml
COC(=O)[C@H](Cc1ccccc1)NC(=O)[C@H](CC(=O)O)NCCCc1ccc(OC)cc1 [Derivative 2, N-[N-[3-(4-methoxyphenyl)propyl]-L-α-aspartyl]-L-phenylalanine 1-methyl ester]	0.63	20.4	4900	0.0000597	–	magnification of sweetness intensity at PSE 4% ([3]; calculated, sweetener for tabletop use): 6000 times
COC(=O)[C@H](Cc1ccccc1)NC(=O)[C@H](CC(=O)O)NCCC(C)(C)c1ccc(O)c(C)c1 [Derivative 4, N-[N-[3-(3-methyl-4-hydroxyphenyl)-3-methylbutyl]-L-α-aspartyl]-L-phenylalanine 1-methyl ester]	0.93	3.4	–	–	0.00015	X when Y=5.1% ([3]; from the equation of derivative 4): 0.00012 g/100 ml
COC(=O)[C@H](Cc1ccccc1)NC(=O)[C@H](CC(=O)O)NCCC(C)(C)c1ccc(O)cc1 [Derivative 6, N-[N-[3-(4-hydroxyphenyl)-3-methylbutyl]-L-α-aspartyl]-L-phenylalanine 1-methyl ester]	0.93	7.1	–	–	–	X when Y=9.6% ([3]; from the equation of derivative 6): 0.000685 g/100 ml
COC(=O)[C@H](Cc1ccccc1)NC(=O)[C@H](CC(=O)O)NCCCc1ccc(O)c(C)c1 [Derivative 8, N-[N-[3-(3-methyl-4-hydroxyphenyl)propyl]-L-α-aspartyl]-L-phenylalanine 1-methyl ester]	0.77	6.3	–	–	0.00036	X when Y=8.9% ([3]; from the equation of derivative 8): 0.00055 g/100 ml
